Source: PubChem BioAssay AID1963961 (Molecular Pharmacology Branch, DTP, NCI, 2024)

Tested on: K98450-129-R-PDC multicell spheroids, viability
Experiment: Anticancer human tumor K98450-129-R-PDC patient-derived colon adenocarcinoma cell line growth inhibition [PI3K]
Conditions: for IC50: curve of first compound; for viability, T/C: stronger effect = lower value; active = viability on the fitted dose curve at most 10% of control; inactive = the rest
How it was run: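 Multi-cell spheroids combine tumor cells with HUVEC and human MSCs, treated with targeted agents alone or with inavolisib, alpelisib, duvelisib or copanlisib. Concentrations fall in half-log steps from at or near clinical Cmax, or from 10 microM where Cmax is unknown; viability read-out.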

[1] = second compound 0.00316 µM, first compound 0.0316 µM
[2] = second compound 0.00316 µM, first compound 0.1 µM
[3] = second compound 0.00316 µM, first compound 0.316 µM
[4] = second compound 0.00316 µM, first compound 1 µM
[5] = second compound 0.00316 µM, first compound 3.16 µM
[6] = second compound 0.00316 µM, first compound 10 µM
[7] = second compound 0.01 µM, first compound 0.0316 µM
[8] = second compound 0.01 µM, first compound 0.1 µM
[9] = second compound 0.01 µM, first compound 0.316 µM
[10] = second compound 0.01 µM, first compound 1 µM
[11] = second compound 0.01 µM, first compound 3.16 µM
[12] = second compound 0.01 µM, first compound 10 µM
[13] = second compound 0.0316 µM, first compound 0.0316 µM
[14] = second compound 0.0316 µM, first compound 0.1 µM
[15] = second compound 0.0316 µM, first compound 0.316 µM
[16] = second compound 0.0316 µM, first compound 1 µM
[17] = second compound 0.0316 µM, first compound 3.16 µM
[18] = second compound 0.0316 µM, first compound 10 µM
[19] = second compound 0.1 µM, first compound 0.0316 µM
[20] = second compound 0.1 µM, first compound 0.1 µM
[21] = second compound 0.1 µM, first compound 0.316 µM
[22] = second compound 0.1 µM, first compound 1 µM
[23] = second compound 0.1 µM, first compound 3.16 µM
[24] = second compound 0.1 µM, first compound 10 µM
[25] = second compound 0.316 µM, first compound 0.0316 µM
[26] = second compound 0.316 µM, first compound 0.1 µM
[27] = second compound 0.316 µM, first compound 0.316 µM
[28] = second compound 0.316 µM, first compound 1 µM
[29] = second compound 0.316 µM, first compound 3.16 µM
[30] = second compound 0.316 µM, first compound 10 µM
[31] = second compound 1 µM, first compound 0.0316 µM
[32] = second compound 1 µM, first compound 0.1 µM
[33] = second compound 1 µM, first compound 0.316 µM
[34] = second compound 1 µM, first compound 1 µM
[35] = second compound 1 µM, first compound 3.16 µM
[36] = second compound 1 µM, first compound 10 µM
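Also: spheroids exposed to agents for seven days before read-out.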

C=CC(=O)N1CCN(c2nc(=O)n(-c3c(C)ccnc3C(C)C)c3nc(-c4c(O)cccc4F)c(F)cc23)C(C)C1 (stereo not given) + COc1c(OCCCN2CCOCC2)ccc2c3n(c(=NC(=O)c4cnc(N)nc4)nc12)CCN3
0.554 µM: IC50 (second compound 0.316 µM)
5 µM: IC50 (second compound 0.01 µM)
2.95 µM: IC50 (second compound 0.0316 µM)
0.692 µM: IC50 (second compound 0.1 µM)
inactive: viability, T/C [1] 98.1% | viability, T/C [2] 95.5% | viability, T/C [3] 97.4% | viability, T/C [4] 82.1% | viability, T/C [5] 45.7% | viability, T/C [6] 44.7% | viability, T/C [7] 103% | viability, T/C [8] 82.8% | viability, T/C [9] 89.3% | viability, T/C [10] 63% | viability, T/C [11] 57.1% | viability, T/C [12] 41.4% | viability, T/C [13] 116% | viability, T/C [14] 99.6% | viability, T/C [15] 73.8% | viability, T/C [16] 76.2% | viability, T/C [17] 48.6% | viability, T/C [18] 29.4% | viability, T/C [19] 71.9% | viability, T/C [20] 91.2% | viability, T/C [21] 61.1% | viability, T/C [22] 44.9% | viability, T/C [23] 41.9% | viability, T/C [24] 28.3% | viability, T/C [25] 67.7% | viability, T/C [26] 59.5% | viability, T/C [27] 66% | viability, T/C [28] 34.8% | viability, T/C [29] 19.5% | viability, T/C [30] 16.3% | viability, T/C [31] 50.8% | viability, T/C [32] 61.1% | viability, T/C [33] 42.2% | viability, T/C [34] 22.6% | viability, T/C [35] 15.1% | viability, T/C [36] 14.2%
0.166 µM: IC50 (second compound 1 µM)
2.76 µM: IC50 (second compound 0.00316 µM)

CC(C)NCC(C(=O)N1CCN(c2ncnc3c2C(C)CC3O)CC1)c1ccc(Cl)cc1 (stereo not given) + COc1c(OCCCN2CCOCC2)ccc2c3n(c(=NC(=O)c4cnc(N)nc4)nc12)CCN3
> 10 µM: IC50 (second compound 0.00316 µM) | IC50 (second compound 0.01 µM) | IC50 (second compound 0.0316 µM) | IC50 (second compound 0.1 µM) | IC50 (second compound 0.316 µM) | IC50 (second compound 1 µM)
inactive: viability, T/C [1] 107% | viability, T/C [2] 95.9% | viability, T/C [3] 115% | viability, T/C [4] 99% | viability, T/C [5] 97.4% | viability, T/C [6] 89.8% | viability, T/C [7] 111% | viability, T/C [8] 106% | viability, T/C [9] 99.3% | viability, T/C [10] 98.8% | viability, T/C [11] 90.6% | viability, T/C [12] 93.3% | viability, T/C [13] 94% | viability, T/C [14] 114% | viability, T/C [15] 88.4% | viability, T/C [16] 95.1% | viability, T/C [17] 89.8% | viability, T/C [18] 86.2% | viability, T/C [19] 79% | viability, T/C [20] 66.4% | viability, T/C [21] 67% | viability, T/C [22] 73.7% | viability, T/C [23] 95.4% | viability, T/C [24] 82.9% | viability, T/C [25] 69.5% | viability, T/C [26] 73.8% | viability, T/C [27] 58.7% | viability, T/C [28] 65.2% | viability, T/C [29] 68.9% | viability, T/C [30] 66.3% | viability, T/C [31] 54.1% | viability, T/C [32] 49.3% | viability, T/C [33] 55.6% | viability, T/C [34] 45.2% | viability, T/C [35] 59.7% | viability, T/C [36] 47.5%

CCN1CCN(Cc2ccc(Nc3ncc(F)c(-c4cc(F)c5nc(C)n(C(C)C)c5c4)n3)nc2)CC1 + COc1c(OCCCN2CCOCC2)ccc2c3n(c(=NC(=O)c4cnc(N)nc4)nc12)CCN3
> 1 µM: IC50 (second compound 0.00316 µM) | IC50 (second compound 0.01 µM) | IC50 (second compound 0.0316 µM) | IC50 (second compound 0.1 µM) | IC50 (second compound 0.316 µM)
< 0.00316 µM: IC50 (second compound 1 µM)
inactive: viability, T/C (second compound 0.00316 µM, first compound 0.00316 µM) 99.6% | viability, T/C (second compound 0.00316 µM, first compound 0.01 µM) 108% | viability, T/C [1] 88.9% | viability, T/C [2] 86.9% | viability, T/C [3] 87.5% | viability, T/C [4] 79.4% | viability, T/C (second compound 0.01 µM, first compound 0.00316 µM) 117% | viability, T/C (second compound 0.01 µM, first compound 0.01 µM) 93.7% | viability, T/C [7] 81.6% | viability, T/C [8] 94% | viability, T/C [9] 71.1% | viability, T/C [10] 75.8% | viability, T/C (second compound 0.0316 µM, first compound 0.00316 µM) 78.3% | viability, T/C (second compound 0.0316 µM, first compound 0.01 µM) 64.5% | viability, T/C [13] 81.9% | viability, T/C [14] 66.8% | viability, T/C [15] 72.8% | viability, T/C [16] 110% | viability, T/C (second compound 0.1 µM, first compound 0.00316 µM) 71.6% | viability, T/C (second compound 0.1 µM, first compound 0.01 µM) 64.9% | viability, T/C [19] 85.6% | viability, T/C [20] 57.3% | viability, T/C [21] 64.2% | viability, T/C [22] 70.7% | viability, T/C (second compound 0.316 µM, first compound 0.00316 µM) 53.1% | viability, T/C (second compound 0.316 µM, first compound 0.01 µM) 64.6% | viability, T/C [25] 57.3% | viability, T/C [26] 46.2% | viability, T/C [27] 64.7% | viability, T/C [28] 60% | viability, T/C (second compound 1 µM, first compound 0.00316 µM) 56% | viability, T/C (second compound 1 µM, first compound 0.01 µM) 45% | viability, T/C [31] 45.8% | viability, T/C [32] 47.8% | viability, T/C [33] 59.8% | viability, T/C [34] 65.2%

Cn1ncc(Cl)c1-c1cc(C(=O)NC(CN)Cc2cccc(F)c2)sc1Cl (stereo not given) + COc1c(OCCCN2CCOCC2)ccc2c3n(c(=NC(=O)c4cnc(N)nc4)nc12)CCN3
> 10 µM: IC50 (second compound 0.00316 µM) | IC50 (second compound 0.01 µM) | IC50 (second compound 0.0316 µM) | IC50 (second compound 0.1 µM) | IC50 (second compound 0.316 µM) | IC50 (second compound 1 µM)
inactive: viability, T/C [1] 112% | viability, T/C [2] 101% | viability, T/C [3] 99.2% | viability, T/C [4] 98.8% | viability, T/C [5] 89.2% | viability, T/C [6] 63.9% | viability, T/C [7] 117% | viability, T/C [8] 103% | viability, T/C [9] 103% | viability, T/C [10] 83.5% | viability, T/C [11] 78.9% | viability, T/C [12] 76% | viability, T/C [13] 86.9% | viability, T/C [14] 99.8% | viability, T/C [15] 90.9% | viability, T/C [16] 78.9% | viability, T/C [17] 89% | viability, T/C [18] 58.5% | viability, T/C [19] 72.4% | viability, T/C [20] 70.4% | viability, T/C [21] 78.9% | viability, T/C [22] 83.3% | viability, T/C [23] 69.5% | viability, T/C [24] 70.3% | viability, T/C [25] 64.6% | viability, T/C [26] 68.4% | viability, T/C [27] 70.6% | viability, T/C [28] 47.8% | viability, T/C [29] 80.4% | viability, T/C [30] 51% | viability, T/C [31] 52.4% | viability, T/C [32] 71.5% | viability, T/C [33] 48.7% | viability, T/C [34] 65.7% | viability, T/C [35] 59.8% | viability, T/C [36] 41.7%

Cn1nccc1Nc1nccc(-c2ccn(C(CO)c3ccc(Cl)c(F)c3)c(=O)c2)n1 (stereo not given) + COc1c(OCCCN2CCOCC2)ccc2c3n(c(=NC(=O)c4cnc(N)nc4)nc12)CCN3
inactive: viability, T/C [1] 101% | viability, T/C [2] 97.7% | viability, T/C [3] 89.3% | viability, T/C [4] 88.5% | viability, T/C [5] 93.6% | viability, T/C [6] 69.2% | viability, T/C [7] 99.1% | viability, T/C [8] 82% | viability, T/C [9] 79.7% | viability, T/C [10] 79.9% | viability, T/C [11] 77.4% | viability, T/C [12] 95.5% | viability, T/C [13] 80.7% | viability, T/C [14] 88.6% | viability, T/C [15] 74.8% | viability, T/C [16] 94.6% | viability, T/C [17] 77.3% | viability, T/C [18] 63.1% | viability, T/C [19] 65.6% | viability, T/C [20] 74.8% | viability, T/C [21] 73.3% | viability, T/C [22] 75.3% | viability, T/C [23] 70.2% | viability, T/C [24] 44.5% | viability, T/C [25] 63.2% | viability, T/C [26] 53.7% | viability, T/C [27] 55.6% | viability, T/C [28] 61.9% | viability, T/C [29] 59.7% | viability, T/C [30] 40.8% | viability, T/C [31] 54.7% | viability, T/C [32] 61.5% | viability, T/C [33] 43.2% | viability, T/C [34] 43.9% | viability, T/C [35] 33.4% | viability, T/C [36] 20.9%
8.33 µM: IC50 (second compound 0.316 µM)
7.85 µM: IC50 (second compound 0.1 µM)
> 10 µM: IC50 (second compound 0.00316 µM) | IC50 (second compound 0.01 µM) | IC50 (second compound 0.0316 µM)
0.272 µM: IC50 (second compound 1 µM)
